Reference: patent publication US8575360B2, “Derivatives of 6,7-dihydro-5H-imidazo[1,2-a]imidazole-3-carboxylic acid amides” (Boehringer Ingelheim International GmbH, priority 2009, dated 2013)

Biological target: T1, LFA-1 (CD18/CD11a) binding to ICAM-1 (Homo sapiens, UniProt P05107+P20701)
T1 construct: followed by purified LFA-1 (in buffer of 50 mM triethylamine, 150 mM NaCl, 1% beta octylglucoside)
Test: LFA-1/Biotin-sICAM-1 AlphaScreen assay: inhibition of LFA-1 binding to ICAM-1
Conditions: 37° C. 90 minutes, highest compound concentration 1 μM
Excerpt: Assay to Determine Inhibition of LFA-1 Binding to ICAM-1
This assay protocol is designed to study the direct antagonism, by a test compound, of the interaction of ICAM-1 with the Leukointegrin CD18/CD11a (LFA-1).
The LFA-1/Biotin-sICAM-1 molecular assay measures the ability of test compounds to inhibit binding of LFA-1 to Biotinylated-sICAM using AlphaScreen technology (Ref: Wilson, J, Rossi, C P, Carboni, S, Fremaux, C, Perrin, D, Soto, C, Kosco-Vilbois, M, and Scheer, A: A Homogeneous 384-Well High-Throughput Binding Assay for a TNF Receptor Using Alphascreen Technology. J Biomol Screen 2003; 8:522-532) that uses TS2/4(anti-LFA-1)-custom conjugated AlphaLisa acceptor beads and streptavidin-coated donor beads from PerkinElmer. The assay was performed in white OptiPlates-384 in a volume of 60 μL using assay buffer (Dulbecco's PBS containing calcium and magnesium, 2 mM MgCl2, 0.1 mM PMSF, 0.1% BSA, pH 7.1). To each well, Biotin-sICAM was added followed by purified LFA-1 (in buffer of 50 mM triethylamine, 150 mM NaCl, 1% beta octylglucoside, 2 mM MgCl2 neutralized to pH with 1M Tris-HCl, pH 7.5). For compound testing, compound was added in 5 uL to the above in 25 uL. LFA-1 and Biotin-sICAM-1 were used at concentrations that would yield a signal to background ratio of 8-10. The highest concentration of compound was 1 μM in 1% DMSO. Positive controls were wells without compound containing LFA-1, while blanks were wells without both compound and LFA-1. Plates were mixed and incubated at 37° C. for 90 minutes. This was followed by addition of 15 μL/well TS2/4-conjugated acceptor beads diluted in PBS containing 0.1% BSA for a final concentration of 10 μg/mL. The plates were mixed and incubated in the dark for 30 minutes at room temperature followed by addition of 15 μL/well streptavidin-coated donor beads diluted in PBS containing 0.1% BSA at a final concentration of 15 μg/mL. The plates were mixed and incubated in the dark for 60 minutes at room temperature and then read on an EnVision Multilabel Reader using AlphaScreen 384-well OptiPlate protocol.

T1 sequence (P20701 26-1170): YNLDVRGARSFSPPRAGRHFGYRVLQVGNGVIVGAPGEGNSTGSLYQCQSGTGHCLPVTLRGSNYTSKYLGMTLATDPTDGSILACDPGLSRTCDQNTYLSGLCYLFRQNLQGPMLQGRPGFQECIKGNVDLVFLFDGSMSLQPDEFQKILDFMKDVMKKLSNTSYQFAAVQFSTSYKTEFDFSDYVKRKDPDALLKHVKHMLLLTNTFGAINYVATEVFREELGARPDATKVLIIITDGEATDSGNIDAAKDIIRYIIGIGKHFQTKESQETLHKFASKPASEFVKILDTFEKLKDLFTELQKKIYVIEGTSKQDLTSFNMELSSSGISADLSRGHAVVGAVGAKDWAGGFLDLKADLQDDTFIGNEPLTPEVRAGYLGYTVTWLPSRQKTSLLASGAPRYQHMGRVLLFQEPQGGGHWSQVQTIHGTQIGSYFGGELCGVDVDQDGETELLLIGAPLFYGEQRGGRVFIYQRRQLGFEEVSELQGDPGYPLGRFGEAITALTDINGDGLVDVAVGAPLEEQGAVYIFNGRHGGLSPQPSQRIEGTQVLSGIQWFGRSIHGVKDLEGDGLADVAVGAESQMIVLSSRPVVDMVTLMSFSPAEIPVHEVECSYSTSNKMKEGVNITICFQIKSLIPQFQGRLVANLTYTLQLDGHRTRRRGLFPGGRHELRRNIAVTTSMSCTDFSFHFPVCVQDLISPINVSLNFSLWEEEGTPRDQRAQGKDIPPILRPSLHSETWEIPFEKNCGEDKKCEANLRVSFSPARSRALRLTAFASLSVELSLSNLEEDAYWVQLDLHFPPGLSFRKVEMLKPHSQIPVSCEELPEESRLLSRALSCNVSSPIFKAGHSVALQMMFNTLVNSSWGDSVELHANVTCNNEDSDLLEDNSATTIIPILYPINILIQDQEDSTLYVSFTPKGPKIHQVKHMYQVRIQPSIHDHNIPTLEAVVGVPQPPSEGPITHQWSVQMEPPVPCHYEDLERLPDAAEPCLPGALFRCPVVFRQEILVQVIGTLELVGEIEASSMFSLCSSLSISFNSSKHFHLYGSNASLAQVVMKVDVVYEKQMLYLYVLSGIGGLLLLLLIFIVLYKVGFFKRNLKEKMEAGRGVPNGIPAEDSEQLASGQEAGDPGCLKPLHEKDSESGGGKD
T1 sequence (P05107 23-769 partner): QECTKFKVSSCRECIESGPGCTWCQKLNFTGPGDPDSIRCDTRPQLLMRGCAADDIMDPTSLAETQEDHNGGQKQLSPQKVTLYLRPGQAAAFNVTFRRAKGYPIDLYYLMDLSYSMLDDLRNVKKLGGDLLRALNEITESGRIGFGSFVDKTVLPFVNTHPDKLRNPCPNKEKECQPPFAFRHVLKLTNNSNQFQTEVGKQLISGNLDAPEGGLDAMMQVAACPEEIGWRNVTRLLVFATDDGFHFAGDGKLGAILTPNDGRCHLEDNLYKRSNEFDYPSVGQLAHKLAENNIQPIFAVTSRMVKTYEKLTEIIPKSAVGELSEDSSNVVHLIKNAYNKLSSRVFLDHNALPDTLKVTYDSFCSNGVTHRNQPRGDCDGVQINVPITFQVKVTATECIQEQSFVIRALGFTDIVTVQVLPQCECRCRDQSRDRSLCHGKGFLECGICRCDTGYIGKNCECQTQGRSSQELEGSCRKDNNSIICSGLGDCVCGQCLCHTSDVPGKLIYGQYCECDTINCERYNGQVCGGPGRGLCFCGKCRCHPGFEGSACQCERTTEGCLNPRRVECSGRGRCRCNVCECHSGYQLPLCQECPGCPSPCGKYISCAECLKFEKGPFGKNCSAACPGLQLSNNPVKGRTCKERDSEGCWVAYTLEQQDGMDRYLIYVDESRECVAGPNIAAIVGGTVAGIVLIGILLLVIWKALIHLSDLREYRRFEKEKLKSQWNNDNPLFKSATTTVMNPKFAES

SMILES | IC50
C[C@@]1(Cc2ccc(C#N)cc2)C(=O)N(c2cc(Cl)c(F)c(Cl)c2)c2ncc(C(=O)NC3(C(=O)NC4(c5ccc(-c6cccc(S(N)(=O)=O)c6)cn5)CC4)CC3)n21 [Compound 115] | 1.8 nM
Cn1cc(-c2ccc(C3(NC(=O)C4(NC(=O)c5cnc6n5[C@](C)(Cc5ccc(C#N)cc5)C(=O)N6c5cc(Cl)c(F)c(Cl)c5)CC4)CC3)nn2)c(C2CC2)n1 [Compound 15] | 1.6 nM
CC1(Cc2ccc(C#N)cc2)C(=O)N(c2cc(Cl)c(F)c(Cl)c2)c2ncc(C(=O)NC3(C(=O)NC4(c5ccc(-c6cnn(C7CC7)c6)cn5)CC4)CC3)n21 (stereo not drawn) [Compound 38] | 1.7 nM
C[C@@]1(Cc2ccc(C#N)cc2)C(=O)N(c2cc(Cl)cc(Cl)c2)c2ncc(C(=O)NC3(C(=O)NC4(c5ccc(-c6ccc(NS(C)(=O)=O)cc6)cn5)CC4)CC3)n21 [Compound 133] | 1.5 nM
Cn1cc(-c2cnc(C3(NC(=O)C4(NC(=O)c5cnc6n5[C@](C)(Cc5ccc(OC(F)(F)F)cc5)C(=O)N6c5cc(Cl)c(F)c(Cl)c5)CC4)CC3)nc2)cn1 [Compound 40, (R)-7-(3,5-Dichloro-4-fluoro-phenyl)-5-methyl-6-oxo-5-(4-trifluoromethoxy-benzyl)-6,7-dihydro-5H-imidazo[1,2-a]imidazole-3-carboxylic acid(1-{1-[5-(1-methyl-1H-pyrazol-4-yl)-pyrimidin-2-yl]-cyclopropylcarbamoyl}-cyclopropyl)-amide] | 1.7 nM
CC(O)C(NC(=O)c1cnc2n1C(C)(Cc1ccc(C#N)cc1)C(=O)N2c1cc(Cl)c(F)c(Cl)c1)C(=O)NC1(c2ccc(-c3cnn(C)c3)nc2)CC1 (stereo not drawn) [Compound 152] | 1.1 nM
C[C@@]1(Cc2ccc(C#N)cc2)C(=O)N(c2cc(Cl)cc(Cl)c2)c2ncc(C(=O)NC3(C(=O)NC4(c5ccc(-c6cccc(O)c6)cn5)CC4)CC3)n21 [Compound 142] | 1.7 nM
C[C@@]1(Cc2ccc(C#N)cc2)C(=O)N(c2cc(Cl)c(F)c(Cl)c2)c2ncc(C(=O)NC3(C(=O)NC4(c5ccc(-c6cn[nH]c6)cn5)CC4)CC3)n21 [Compound 11] | 1.2 nM
C[C@@]1(Cc2ccc(OC(F)(F)F)cc2)C(=O)N(c2cc(Cl)c(F)c(Cl)c2)c2ncc(C(=O)NC3(C(=O)NC4(c5ccc(-c6ccc(N)nc6)cn5)CC4)CC3)n21 [Compound 20] | 1.5 nM
Cc1nn(C)cc1-c1ccc(C2(NC(=O)C3(NC(=O)c4cnc5n4[C@](C)(Cc4ccc(C#N)cc4)C(=O)N5c4cc(Cl)c(F)c(Cl)c4)CC3)CC2)nc1 [Compound 123] | 1.4 nM
C[C@@]1(Cc2ccc(C#N)cc2)C(=O)N(c2cc(Cl)cc(Cl)c2)c2ncc(C(=O)NC3(C(=O)NC4(c5ccc(-c6cccc(C(N)=O)c6)cn5)CC4)CC3)n21 [Compound 66] | 1.3 nM

Continued by falling IC50, values first:

IC50 | SMILES
1.1 nM | Cn1cc(-c2ccc(C3(NC(=O)C4(NC(=O)c5cnc6n5[C@](C)(Cc5ccc(C#N)cc5)C(=O)N6c5cc(Cl)c(F)c(Cl)c5)CC4)CC3)nc2)c(C2CC2)n1 [Compound 14]
1.1 nM | Cc1nn(C)cc1-c1ccc(C(C)NC(=O)C(NC(=O)c2cnc3n2C(C)(Cc2ccc(C#N)cc2)C(=O)N3c2cc(Cl)c(F)c(Cl)c2)C(C)O)nc1 (stereo not drawn) [Compound 121]
1 nM | C[C@@]1(Cc2ccc(C#N)cc2)C(=O)N(c2cc(Cl)c(F)c(Cl)c2)c2ncc(C(=O)NC3(C(=O)NC4(c5ccc6cc(-c7cn[nH]c7)cnc6n5)CCC4)CC3)n21 [Compound 10]
1 nM | C[C@@]1(Cc2ccc(C#N)cc2)C(=O)N(c2cc(Cl)c(F)c(Cl)c2)c2ncc(C(=O)NC3(C(=O)NC4(c5ccc(-c6ccc7nccn7c6)cn5)CC4)CC3)n21 [Compound 16]
0.99 nM | C[C@@]1(Cc2ccc(C#N)cc2)C(=O)N(c2cc(Cl)cc(Cl)c2)c2ncc(C(=O)NC3(C(=O)NC4(c5ccc(-c6ccc(C(N)=O)cc6)cn5)CC4)CC3)n21 [Compound 131]
0.76 nM | Cc1nn(C)cc1-c1ccc(C2(NC(=O)[C@H](CO)NC(=O)c3cnc4n3[C@](C)(Cc3ccc(C#N)cc3)C(=O)N4c3cc(Cl)c(F)c(Cl)c3)CC2)nc1 [Compound 154]
0.72 nM | C[C@@]1(Cc2ccc(C#N)cc2)C(=O)N(c2cc(Cl)cc(Cl)c2)c2ncc(C(=O)NC3(C(=O)NC4(c5ccc(-c6cccc(C(=O)O)c6)cn5)CC4)CC3)n21 [Compound 52]
0.71 nM | C[C@@]1(Cc2ccc(C#N)cc2)C(=O)N(c2cc(Cl)cc(Cl)c2)c2ncc(C(=O)NC3(C(=O)NC4(c5ccc(-c6ccc(F)nc6)cn5)CC4)CC3)n21 [Compound 58]
0.68 nM | Cc1nn(C)cc1-c1ccc(C2(NC(=O)C3(NC(=O)c4cnc5n4[C@](C)(Cc4ccc(OC(F)(F)F)cc4)C(=O)N5c4cc(Cl)c(F)c(Cl)c4)CC3)CC2)cn1 [Compound 150]
0.67 nM | CN(C)C(=O)c1cccc(-c2ccc(C3(NC(=O)C4(NC(=O)c5cnc6n5[C@](C)(Cc5ccc(C#N)cc5)C(=O)N6c5cc(Cl)cc(Cl)c5)CC4)CC3)nc2)c1 [Compound 56]
0.64 nM | C[C@@]1(Cc2ccc(C#N)cc2)C(=O)N(c2cc(Cl)cc(Cl)c2)c2ncc(C(=O)NC3(C(=O)NC4(c5ccc(-c6ccc(S(C)(=O)=O)cc6)cn5)CC4)CC3)n21 [Compound 134]
0.64 nM | C[C@@]1(Cc2ccc(C#N)cc2)C(=O)N(c2cc(Cl)cc(Cl)c2)c2ncc(C(=O)NC3(C(=O)NC4(c5ccc(-c6cccc(S(N)(=O)=O)c6)cn5)CC4)CC3)n21 [Compound 138]
0.61 nM | Cc1ccc(-c2ccc(C(C)NC(=O)C(NC(=O)c3cnc4n3C(C)(Cc3ccc(C#N)cc3)C(=O)N4c3cc(Cl)c(F)c(Cl)c3)C(C)O)nc2)cn1 (stereo not drawn) [Compound 30]
0.53 nM | Cc1cc(-c2ccc(C3(NC(=O)C4(NC(=O)c5cnc6n5[C@](C)(Cc5ccc(C#N)cc5)C(=O)N6c5cc(Cl)cc(Cl)c5)CC4)CC3)nc2)ccn1 [Compound 54]
0.48 nM | Cn1cc(-c2ccc(C3(NC(=O)C4(NC(=O)c5cnc6n5[C@](C)(Cc5ccc(C#N)cc5)C(=O)N6c5cc(Cl)c(F)c(Cl)c5)CC4)CC3)nn2)cn1 [Compound 35]
0.22 nM | C[C@@]1(Cc2ccc(C#N)cc2)C(=O)N(c2cc(Cl)cc(Cl)c2)c2ncc(C(=O)NC3(C(=O)NC4(c5ccc(-c6cn[nH]c6)cn5)CC4)CC3)n21 [Compound 129]
